Measurements: ChEMBL document CHEMBL1143451, “The neuroprotective action of JNK3 inhibitors based on the 6,7-dihydro-5H-pyrrolo[1,2-a]imidazole scaffold” (Bioorg Med Chem Lett, 2005)

Experiments:
[1] = biological target: T1, Mitogen-activated protein kinase 14 (Homo sapiens, UniProt Q16539); test: Inhibitory activity against p38 at a concentration of 1.0 uM
[2] = biological target: T2, Mitogen-activated protein kinase 10 (Homo sapiens, UniProt P53779); test: Inhibitory activity against c-Jun N-terminal kinase 3 at a concentration of 1.0 uM
[3] = biological target: T1, Mitogen-activated protein kinase 14; test: Inhibitory concentration against p38 at a concentration of 1.0 uM
[4] = biological target: T2, Mitogen-activated protein kinase 10; test: Inhibitory concentration against c-Jun N-terminal kinase 3 at a concentration of 1.0 uM

T2 sequence (P53779 whole entry): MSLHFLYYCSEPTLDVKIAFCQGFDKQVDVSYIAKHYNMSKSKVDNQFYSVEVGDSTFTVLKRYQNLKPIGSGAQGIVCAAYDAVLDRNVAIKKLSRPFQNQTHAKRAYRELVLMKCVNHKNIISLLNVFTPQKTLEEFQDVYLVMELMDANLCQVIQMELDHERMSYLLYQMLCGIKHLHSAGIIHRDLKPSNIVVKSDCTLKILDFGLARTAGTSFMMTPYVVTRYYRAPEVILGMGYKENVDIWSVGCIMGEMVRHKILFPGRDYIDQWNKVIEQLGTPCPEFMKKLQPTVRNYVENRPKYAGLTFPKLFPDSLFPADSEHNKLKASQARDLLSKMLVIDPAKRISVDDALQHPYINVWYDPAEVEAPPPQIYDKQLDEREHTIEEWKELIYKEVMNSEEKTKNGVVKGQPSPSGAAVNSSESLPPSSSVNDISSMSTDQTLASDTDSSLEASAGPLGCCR
T1 sequence (Q16539 whole entry): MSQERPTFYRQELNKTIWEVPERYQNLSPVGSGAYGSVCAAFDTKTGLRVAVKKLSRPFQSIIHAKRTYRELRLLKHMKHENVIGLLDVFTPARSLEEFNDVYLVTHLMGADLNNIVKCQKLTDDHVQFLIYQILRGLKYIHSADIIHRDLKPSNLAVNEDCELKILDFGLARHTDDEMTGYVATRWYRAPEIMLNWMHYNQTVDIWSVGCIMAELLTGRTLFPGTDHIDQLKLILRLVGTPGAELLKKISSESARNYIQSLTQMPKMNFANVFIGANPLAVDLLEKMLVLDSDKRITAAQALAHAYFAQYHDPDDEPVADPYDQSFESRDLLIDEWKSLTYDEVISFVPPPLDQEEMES

Structure (SMILES) | IC50 [1] | IC50 [2] | IC50 [3] | IC50 [4]
[N-]=[N+]=Nc1cccc(-c2ncn(CCCNC(=O)c3ccc(I)cc3)c2-c2ccncc2)c1 |  |  | 46 nM | 
CCCNc1nccc(-c2c(-c3ccc(F)cc3)nc3n2[C@@H](COCc2ccc(OC)cc2)CC3)n1 | 217 nM | 233 nM |  | 
O=C(NCCCn1cnc(-c2ccc(F)cc2)c1-c1ccncc1)c1ccccc1 |  |  |  | 130 nM
COc1ccc(COC[C@@H]2CCc3nc(-c4ccc(F)cc4)c(-c4ccnc(N)n4)n32)cc1 | 295 nM | 61.2 nM |  | 

More lines, now with the values ahead:

IC50 [1] | IC50 [2] | IC50 [3] | IC50 [4] | Structure (SMILES)
28 nM | 2.5 nM |  |  | CCCNc1nccc(-c2c(-c3ccc(F)cc3)nc3n2[C@H](CO)CC3)n1
31 nM | 3 nM |  |  | CCCNc1nccc(-c2c(-c3ccc(F)cc3)nc3n2[C@@H](CO)CC3)n1
116 nM | 270 nM |  |  | COc1ccc(COC[C@H]2CCc3nc(-c4ccc(F)cc4)c(-c4ccnc(N)n4)n32)cc1
54 nM | 10.9 nM |  |  | CCCNc1nccc(-c2c(-c3ccc(F)cc3)nc3n2[C@H](COCc2ccc(OC)cc2)CC3)n1
